# Measured values as given in publication PMC11672637, “7-O-Carboxylic Acid-Substituted 3-O-Alkyl Difluoroquercetin; An Aztreonam-Potentiating Agent Against Carbapenemase-Producing Pseudomonas aeruginosa Through Simultaneous Inhibition of Metallo-β-Lactamase and Efflux Pump” (Antibiotics, 2024).
# Like-named read-outs stand apart in the source and are kept apart here.
# What was measured:
# PA-039, blaNDM = test: MIC / checkerboard with ATM; assay type: cell-based, P. aeruginosa; conditions: for MIC: Pseudomonas aeruginosa, read-out: MIC of ATM with 5, PA-039
# PA-021, blaIMP = test: MIC / checkerboard with ATM; assay type: cell-based, P. aeruginosa; conditions: for MIC: Pseudomonas aeruginosa, read-out: MIC of ATM with 5, PA-021
# PA-032, blaIMP = test: MIC / checkerboard with ATM; assay type: cell-based, P. aeruginosa; conditions: for MIC: Pseudomonas aeruginosa, read-out: MIC of ATM with 5, PA-032
# [1] = test system: wild-type P. aeruginosa (ATCC 27853); test: Time–kill assay; assay type: cell-based; conditions: for Log CFU/mL, ATM + 5: 24 h
# Procedure: Aliquots (50 μL) were taken from the incubation mixture at regular time intervals (t = 0, 3, 6, and 24 h), serially diluted in 0.85% NaCl solution, and plated on BAP. Bacterial colonies were counted, and the data are presented as the means of at least three independent experiments.
structure (smiles),measurement,setting,value
"CC(C)(C)CCOc1c(-c2ccc(F)c(F)c2)oc2cc(OCC(=O)O)cc(O)c2c1=O [Compound 5, 2-((2-(3,4-Difluorophenyl)-3-(3,3-dimethylbutoxy)-5-hydroxy-4-oxo-4H-chromen-7-yl)oxy)acetic Acid]",Susceptibility to ATM,"PA-039, blaNDM; PA-039, ATM/5","S (S (sensitive, MIC ≤ 8 mg/L))"
same,FD (fold decrease in MIC of ATM with 5),"PA-039, blaNDM; PA-039, lowest-FICI combination",4
same,MIC,"PA-039, blaNDM; 5 at 1 mg/L",16 µg/mL
same,MIC,"PA-039, blaNDM; 5 at 2 mg/L",16 µg/mL
same,MIC,"PA-039, blaNDM; 5 at 4 mg/L",8 µg/mL
same,MIC,"PA-039, blaNDM; 5 at 8 mg/L",4 µg/mL
same,MIC,"PA-039, blaNDM; 5 at 16 mg/L",4 µg/mL
same,MIC,"PA-039, blaNDM; 5 at 32 mg/L",4 µg/mL
same,MIC,"PA-039, blaNDM; 5 at 64 mg/L",4 µg/mL
same,Activity (FICI class),"PA-021, blaIMP; PA-021","I (I (indifference, 0.5 < FICI ≤ 4))"
same,Lowest FICI (ATM/5),"PA-021, blaIMP; PA-021",0.50
same,Susceptibility to ATM,"PA-021, blaIMP; PA-021, ATM/5","S (S (sensitive, MIC ≤ 8 mg/L))"
same,FD (fold decrease in MIC of ATM with 5),"PA-021, blaIMP; PA-021, lowest-FICI combination",2
same,MIC,"PA-021, blaIMP; 5 at 1 mg/L",1 µg/mL
same,MIC,"PA-021, blaIMP; 5 at 2 mg/L",0.5 µg/mL
same,MIC,"PA-021, blaIMP; 5 at 4 mg/L",0.5 µg/mL
same,MIC,"PA-021, blaIMP; 5 at 8 mg/L",0.5 µg/mL
same,MIC,"PA-021, blaIMP; 5 at 16 mg/L",0.5 µg/mL
same,MIC,"PA-021, blaIMP; 5 at 32 mg/L",0.5 µg/mL
same,MIC,"PA-021, blaIMP; 5 at 64 mg/L",0.5 µg/mL
same,Activity (FICI class),"PA-032, blaIMP; PA-032","S (S (Synergy, FICI ≤ 0.5))"
same,Concentrations of ATM and 5 at lowest FICI (ATM/5),"PA-032, blaIMP; PA-032",2/8
same,Susceptibility to ATM,"PA-032, blaIMP; PA-032, ATM/5","S (S (sensitive, MIC ≤ 8 mg/L))"
same,FD (fold decrease in MIC of ATM with 5),"PA-032, blaIMP; PA-032, lowest-FICI combination",4
same,MIC,"PA-032, blaIMP; 5 at 1 mg/L",4 µg/mL
same,MIC,"PA-032, blaIMP; 5 at 2 mg/L",4 µg/mL
same,MIC,"PA-032, blaIMP; 5 at 4 mg/L",4 µg/mL
same,MIC,"PA-032, blaIMP; 5 at 8 mg/L",2 µg/mL
same,MIC,"PA-032, blaIMP; 5 at 16 mg/L",1 µg/mL
same,MIC,"PA-032, blaIMP; 5 at 32 mg/L",1 µg/mL
same,MIC,"PA-032, blaIMP; 5 at 64 mg/L",1 µg/mL
same,"Diff. (ATM + 5, 24 h vs initial inoculum)",[1]; ATM 1/2 MIC + 5 at 8 mg/L,−0.04 Log CFU/mL
same,Diff. (ATM + 5 vs ATM only),[1]; ATM 1/2 MIC + 5 at 8 mg/L,−3.51 Log CFU/mL
same,"Synergistic activity, interpretation",[1]; ATM 1/2 MIC + 5 at 8 mg/L,Synergy (a ≥ 2 log10 decrease in CFU/mL for the combination of ATM and 5 compared to ATM alone after 24 h of incubation)
same,"Log CFU/mL, ATM + 5",[1]; ATM 1/2 MIC + 5 at 8 mg/L,5.80 Log CFU/mL
same,"Diff. (ATM + 5, 24 h vs initial inoculum)",[1]; ATM 1/4 MIC + 5 at 8 mg/L,−0.04 Log CFU/mL
same,Diff. (ATM + 5 vs ATM only),[1]; ATM 1/4 MIC + 5 at 8 mg/L,−3.77 Log CFU/mL
same,"Synergistic activity, interpretation",[1]; ATM 1/4 MIC + 5 at 8 mg/L,Synergy (a ≥ 2 log10 decrease in CFU/mL for the combination of ATM and 5 compared to ATM alone after 24 h of incubation)
same,"Log CFU/mL, ATM + 5",[1]; ATM 1/4 MIC + 5 at 8 mg/L,5.80 Log CFU/mL
same,"Diff. (ATM + 5, 24 h vs initial inoculum)",[1]; ATM 1 MIC + 5 at 8 mg/L,−5.57 Log CFU/mL
same,Diff. (ATM + 5 vs ATM only),[1]; ATM 1 MIC + 5 at 8 mg/L,−7.75 Log CFU/mL
same,"Synergistic activity, interpretation",[1]; ATM 1 MIC + 5 at 8 mg/L,Synergy (a ≥ 2 log10 decrease in CFU/mL for the combination of ATM and 5 compared to ATM alone after 24 h of incubation)
same,"Log CFU/mL, ATM + 5",[1]; ATM 1 MIC + 5 at 8 mg/L,0.27 Log CFU/mL
same,"Diff. (ATM + 5, 24 h vs initial inoculum)",[1]; ATM 2 MIC + 5 at 8 mg/L,−5.84 Log CFU/mL
same,Diff. (ATM + 5 vs ATM only),[1]; ATM 2 MIC + 5 at 8 mg/L,−0.17 Log CFU/mL
same,"Log CFU/mL, ATM + 5",[1]; ATM 2 MIC + 5 at 8 mg/L,0.00 Log CFU/mL
